Test results as given in patent US20060173031A1, “Therapeutic agent for schizophrenia” (MITSUBISHI PHARMA CORPORATION, priority 2003, published 2006).

System: Phencyclidine (PCP)-induced passive avoidance reaction disorder
Assay: Phencyclidine (PCP)-induced passive avoidance reaction disorder in rats
Assay type: in vivo, Wistar male rats
Settings: 10 mg/kg oral, 30 min before PCP 2 mg/kg i.p.; test trial 24 hr after acquisition trial; max 300 seconds; versus vehicle group

## Cc1oc2nc3c(c(NC(=O)CN4CCCC4=O)c2c1C)CCCC3 [compound A, 2-(2-oxopyrrolidin-1-yl)-N-(2,3-dimethyl-5,6,7,8-tetrahydrofuro[2,3-b]quinolin-4-yl)acetamide]
  latent time of test trial (passive avoidance reaction): significantly prolonged the latent time shortened by the PCP administration
